Tests used:
Assay type in all cases: cell-based
human TLR8 = biological target: T1, human TLR8 (Homo sapiens, UniProt Q9NR97); assay: TLR8 inhibition reporter assay (HEK-Blue SEAP reporter, R848 stimulation); settings: HEK-Blue cells overexpressing human TLR8, SEAP reporter, R848 15.9 μM, 22 hour incubation
T1 construct: host or cells: HEK-Blue cells
T1 sequence (Q9NR97 27-1041): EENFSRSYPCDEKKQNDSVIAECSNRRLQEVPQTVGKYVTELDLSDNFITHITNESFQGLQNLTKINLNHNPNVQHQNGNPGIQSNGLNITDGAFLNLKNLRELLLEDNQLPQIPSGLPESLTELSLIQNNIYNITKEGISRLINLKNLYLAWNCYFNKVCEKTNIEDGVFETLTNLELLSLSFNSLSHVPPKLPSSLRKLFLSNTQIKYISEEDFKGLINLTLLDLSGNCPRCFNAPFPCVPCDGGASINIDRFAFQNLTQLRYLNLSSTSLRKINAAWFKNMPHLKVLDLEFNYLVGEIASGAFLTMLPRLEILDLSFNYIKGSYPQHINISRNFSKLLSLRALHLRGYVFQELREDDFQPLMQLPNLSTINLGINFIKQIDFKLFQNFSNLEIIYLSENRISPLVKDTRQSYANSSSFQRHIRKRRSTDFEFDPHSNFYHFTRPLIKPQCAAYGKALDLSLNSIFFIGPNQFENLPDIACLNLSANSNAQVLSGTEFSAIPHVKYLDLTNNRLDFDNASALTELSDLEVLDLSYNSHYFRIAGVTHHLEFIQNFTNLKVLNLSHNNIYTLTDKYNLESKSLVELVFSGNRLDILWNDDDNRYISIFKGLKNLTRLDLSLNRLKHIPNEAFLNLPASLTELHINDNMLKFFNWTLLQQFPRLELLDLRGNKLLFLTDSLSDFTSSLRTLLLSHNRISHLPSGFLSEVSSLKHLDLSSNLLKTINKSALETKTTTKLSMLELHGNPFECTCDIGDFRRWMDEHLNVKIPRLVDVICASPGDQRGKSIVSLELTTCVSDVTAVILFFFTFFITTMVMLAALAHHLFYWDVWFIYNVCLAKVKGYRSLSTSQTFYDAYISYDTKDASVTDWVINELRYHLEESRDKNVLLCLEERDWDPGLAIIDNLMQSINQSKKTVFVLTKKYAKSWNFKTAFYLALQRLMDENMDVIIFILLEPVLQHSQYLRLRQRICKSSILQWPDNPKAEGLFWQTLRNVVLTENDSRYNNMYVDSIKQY
Outline: (§1)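 Compound treatment: 30 min, RT, 0.05 nM–50 μM final. Agonist: TLR7 gardiquimod 7.5 μM; TLR8 R848 15.9 μM; TLR9 ODN2006 5 nM. Incubation 22 h, 37 °C, 5% CO2. Readout SEAP, HEK-Blue Detection.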

human TLR9 = biological target: T2, human TLR9 (Homo sapiens, UniProt Q9NR96); assay: TLR9 inhibition reporter assay (HEK-Blue SEAP reporter, ODN2006 stimulation); settings: HEK-Blue cells overexpressing human TLR9, SEAP reporter, ODN2006 5 nM, 22 hour incubation
T2 construct: host or cells: HEK-Blue cells
T2 sequence (Q9NR96 26-1032): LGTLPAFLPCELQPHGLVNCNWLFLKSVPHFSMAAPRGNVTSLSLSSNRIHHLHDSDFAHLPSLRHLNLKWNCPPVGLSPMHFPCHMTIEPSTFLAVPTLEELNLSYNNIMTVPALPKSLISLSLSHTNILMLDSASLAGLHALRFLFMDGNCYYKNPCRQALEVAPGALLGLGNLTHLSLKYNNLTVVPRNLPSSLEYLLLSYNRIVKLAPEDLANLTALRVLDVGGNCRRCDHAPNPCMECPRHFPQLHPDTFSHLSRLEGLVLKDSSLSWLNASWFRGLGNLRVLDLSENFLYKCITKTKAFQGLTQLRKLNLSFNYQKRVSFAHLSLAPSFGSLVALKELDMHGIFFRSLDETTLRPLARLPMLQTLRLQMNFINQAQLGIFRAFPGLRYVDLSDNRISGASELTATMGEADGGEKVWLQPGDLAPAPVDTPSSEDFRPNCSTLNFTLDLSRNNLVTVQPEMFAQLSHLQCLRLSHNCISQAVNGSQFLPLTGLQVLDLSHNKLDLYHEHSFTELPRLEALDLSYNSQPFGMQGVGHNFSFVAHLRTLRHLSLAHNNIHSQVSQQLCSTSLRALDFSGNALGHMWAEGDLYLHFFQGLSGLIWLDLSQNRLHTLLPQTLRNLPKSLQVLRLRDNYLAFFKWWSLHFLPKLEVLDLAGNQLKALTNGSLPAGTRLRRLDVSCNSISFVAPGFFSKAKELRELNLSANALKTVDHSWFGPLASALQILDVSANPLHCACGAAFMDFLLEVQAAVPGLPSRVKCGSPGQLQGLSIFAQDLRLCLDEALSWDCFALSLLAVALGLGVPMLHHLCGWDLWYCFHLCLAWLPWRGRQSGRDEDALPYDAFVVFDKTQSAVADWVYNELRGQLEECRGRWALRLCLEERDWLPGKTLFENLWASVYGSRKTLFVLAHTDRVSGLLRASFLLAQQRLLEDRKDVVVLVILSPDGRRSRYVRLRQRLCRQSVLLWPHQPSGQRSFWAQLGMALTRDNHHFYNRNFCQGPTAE
Outline: as §1

human TLR7 = biological target: T3, human TLR7 (Homo sapiens, UniProt Q9NYK1); assay: TLR7 inhibition reporter assay (HEK-Blue SEAP reporter, gardiquimod stimulation); settings: HEK-Blue cells overexpressing human TLR7, SEAP reporter, gardiquimod 7.5 μM, 22 hour incubation
T3 construct: host or cells: HEK-Blue cells
T3 sequence (Q9NYK1 27-1049): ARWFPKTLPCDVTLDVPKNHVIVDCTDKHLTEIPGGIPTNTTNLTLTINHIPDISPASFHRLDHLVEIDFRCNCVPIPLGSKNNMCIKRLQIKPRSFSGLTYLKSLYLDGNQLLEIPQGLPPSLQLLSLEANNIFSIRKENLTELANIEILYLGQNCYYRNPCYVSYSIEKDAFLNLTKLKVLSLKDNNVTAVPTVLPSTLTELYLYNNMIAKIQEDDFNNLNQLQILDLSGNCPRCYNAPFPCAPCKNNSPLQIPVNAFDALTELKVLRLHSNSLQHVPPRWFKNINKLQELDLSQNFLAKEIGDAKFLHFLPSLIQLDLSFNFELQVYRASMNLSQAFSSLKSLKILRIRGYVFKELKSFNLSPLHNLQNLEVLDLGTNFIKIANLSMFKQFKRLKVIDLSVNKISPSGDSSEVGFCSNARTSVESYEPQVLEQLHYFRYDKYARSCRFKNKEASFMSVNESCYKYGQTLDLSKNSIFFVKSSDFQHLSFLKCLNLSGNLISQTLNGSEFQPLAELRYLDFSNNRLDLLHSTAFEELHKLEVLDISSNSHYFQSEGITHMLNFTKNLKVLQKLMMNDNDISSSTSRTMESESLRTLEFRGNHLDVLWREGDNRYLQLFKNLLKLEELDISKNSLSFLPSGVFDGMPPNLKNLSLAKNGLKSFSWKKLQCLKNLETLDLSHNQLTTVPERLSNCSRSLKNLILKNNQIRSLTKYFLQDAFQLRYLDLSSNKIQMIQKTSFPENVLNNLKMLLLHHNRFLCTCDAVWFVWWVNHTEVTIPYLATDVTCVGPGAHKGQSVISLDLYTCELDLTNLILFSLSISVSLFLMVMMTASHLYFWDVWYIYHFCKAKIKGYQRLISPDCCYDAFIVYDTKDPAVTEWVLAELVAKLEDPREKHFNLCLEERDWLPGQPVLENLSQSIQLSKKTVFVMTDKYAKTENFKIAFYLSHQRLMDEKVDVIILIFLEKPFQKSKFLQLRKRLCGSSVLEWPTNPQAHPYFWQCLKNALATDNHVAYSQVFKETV
Outline: as §1

| SMILES | IC50 (human TLR8) [nM] | IC50 (human TLR9) [nM] | IC50 (human TLR7) [nM] |
| --- | --- | --- | --- |
| Cc1c(-c2[nH]c3ccc(C4CCN(C5COC5)CC4)cc3c2C(C)C)cn(C)c(=O)c1C [Example 207, 5-(3-isopropyl-5-(1-(oxetan-3-yl)piperidin-4-yl)-1H-indol-2-yl)-1,3,4-trimethylpyridin-2(1H)-one] | 11.7 | 46800 | 20.8 |
| CC(C)c1c(-c2ccc(=O)n(C)c2)[nH]c2ccc(C3CCN(CC(=O)N(C)C)CC3)cc12 [Example 114, 2-(4-(3-isopropyl-2-(1-methyl-6-oxo-1,6-dihydropyridin-3-yl)-1H-indol-5-yl)piperidin-1-yl)-N,N-dimethylacetamide] | 43.6 | 10400 | 42.9 |
| Cc1cc(-c2[nH]c3ccc(C4CCN(CC(=O)N5CCCC5)CC4)cc3c2C(C)C)cn(C)c1=O [Example 122, 5-(3-isopropyl-5-(1-(2-oxo-2-(pyrrolidin-1-yl)ethyl)piperidin-4-yl)-1H-indol-2-yl)-1,3-dimethylpyridin-2(1H)-one] | 15.7 | 14700 | 4.9 |
| CCn1cc(-c2[nH]c3ccc(C4CCN(C5COC5)CC4)cc3c2C(C)C)cc(C)c1=O [Example 204, 1-ethyl-5-(3-isopropyl-5-(1-(oxetan-3-yl)piperidin-4-yl)-1H-indol-2-yl)-3-methylpyridin-2(1H)-one] | 18 | ≥ 50000 | 14.6 |
| CNC(=O)CN1CCC(c2ccc3[nH]c(-c4cn(C)c(=O)c(Cl)c4C)c(C(C)C)c3c2)CC1 [Example 153, 2-(4-(2-(5-chloro-1,4-dimethyl-6-oxo-1,6-dihydropyridin-3-yl)-3-isopropyl-1H-indol-5-yl)piperidin-1-yl)-N-methylacetamide] | 12.6 | 7880 | 3.5 |
| Cc1c(-c2[nH]c3ccc(C4CCN(C5COC5)CC4)cc3c2C(C)C)cn(C)c(=O)c1C#N [Example 221, 5-(3-isopropyl-5-(1-(oxetan-3-yl)piperidin-4-yl)-1H-indol-2-yl)-1,4-dimethyl-2-oxo-1,2-dihydropyridine-3-carbonitrile] | 9.3 | 25400 | 67 |
| Cc1cc(-c2[nH]c3ccc(C4CCN(Cc5ccc(OC(F)(F)F)cc5)CC4)cc3c2C(C)C)cn(C)c1=O [Example 77, 5-(3-isopropyl-5-(1-(4-(trifluoromethoxy)benzyl)piperidin-4-yl)-1H-indol-2-yl)-1,3-dimethylpyridin-2(1H)-one] | 50.6 | 7850 | 123 |
| CCCN1CCC(c2ccc3[nH]c(-c4cc(C)c(=O)n(C)c4)c(C(C)C)c3c2)CC1 [Example 224, 5-(3-isopropyl-5-(1-propylpiperidin-4-yl)-1H-indol-2-yl)-1,3-dimethylpyridin-2(1H)-one] | 4.5 | 14000 | 1.8 |
| COc1c(C)c(-c2[nH]c3ccc(C4CCNCC4)cc3c2C(C)C)cn(C)c1=O [Example 29, 5-(3-isopropyl-5-(piperidin-4-yl)-1H-indol-2-yl)-3-methoxy-1,4-dimethylpyridin-2(1H)-one] | 50.9 | 783 | 14.1 |

Continued, values first:

| IC50 (human TLR8) [nM] | IC50 (human TLR9) [nM] | IC50 (human TLR7) [nM] | SMILES |
| --- | --- | --- | --- |
| 2.8 | 11500 | 2.5 | Cc1cc(-c2[nH]c3ccc(C4CCN(CC(O)C(C)C)CC4)cc3c2C(C)C)cn(C)c1=O (stereo not drawn) [Example 324, 5-(5-(1-(2-hydroxy-3-methylbutyl)piperidin-4-yl)-3-isopropyl-1H-indol-2-yl)-1,3-dimethylpyridin-2(1H)-one] |
| 2.3 | 1820 | 4.8 | Cc1c(-c2[nH]c3ccc(C4CCN(CC5CCOC5)CC4)cc3c2C(C)C)cn(C)c(=O)c1Cl (stereo not drawn) [Example 255, 3-chloro-5-(3-isopropyl-5-(1-((tetrahydrofuran-3-yl)methyl)piperidin-4-yl)-1H-indol-2-yl)-1,4-dimethylpyridin-2(1H)-one] |
| 5.3 | 8510 | 13.7 | Cc1c(-c2[nH]c3ccc(C4CCN(CC(C)(C)O)CC4)cc3c2C(C)C)cn(C)c(=O)c1Cl [Example 309, 3-chloro-5-(5-(1-(2-hydroxy-2-methylpropyl)piperidin-4-yl)-3-isopropyl-1H-indol-2-yl)-1,4-dimethylpyridin-2(1H)-one] |
| 15.8 | 4480 | 11.6 | Cc1cc(-c2[nH]c3ccc(C4CCN(C)CC4)cc3c2C(C)C)cn(CC(F)F)c1=O [Example 266, 1-(2,2-difluoroethyl)-5-(3-isopropyl-5-(1-methylpiperidin-4-yl)-1H-indol-2-yl)-3-methylpyridin-2(1H)-one] |
| 1.4 | 2140 | 14.4 | COCCN1CCC(c2ccc3[nH]c(-c4cc(-c5cnn(C)c5)c(=O)n(C)c4)c(C(C)C)c3c2)CC1 [Example 350, 5-(3-isopropyl-5-(1-(2-methoxyethyl)piperidin-4-yl)-1H-indol-2-yl)-1-methyl-3-(1-methyl-1H-pyrazol-4-yl)pyridin-2(1H)-one] |
